pIC50: −log10 of the molar value.
Tested on: 242566-281-R-J2-PDC complex spheroid viability
Assay: Anticancer human tumor 242566-281-R-J2-PDC patient-derived pancreatic carcinoma cell line growth inhibition [CLK]
Details: for pIC50: curve of first compound; for viability, T/C: stronger effect = lower value; active means viability on the fitted dose curve at most 10% of control; inactive means the rest
Outline: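 Patient-derived tumor cells grown as complex spheroids with HUVEC endothelial cells and mesenchymal stem cells, treated with drug combinations. Concentrations descend in half-log steps from near clinical Cmax, or from 10 microM if Cmax unknown.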

[1] = second compound 0.0316 µM, first compound 0.0316 µM
[2] = second compound 0.0316 µM, first compound 0.1 µM
[3] = second compound 0.0316 µM, first compound 0.316 µM
[4] = second compound 0.0316 µM, first compound 1 µM
[5] = second compound 0.0316 µM, first compound 3.16 µM
[6] = second compound 0.0316 µM, first compound 10 µM
[7] = second compound 0.1 µM, first compound 0.0316 µM
[8] = second compound 0.1 µM, first compound 0.1 µM
[9] = second compound 0.1 µM, first compound 0.316 µM
[10] = second compound 0.1 µM, first compound 1 µM
[11] = second compound 0.1 µM, first compound 3.16 µM
[12] = second compound 0.1 µM, first compound 10 µM
[13] = second compound 0.316 µM, first compound 0.0316 µM
[14] = second compound 0.316 µM, first compound 0.1 µM
[15] = second compound 0.316 µM, first compound 0.316 µM
[16] = second compound 0.316 µM, first compound 1 µM
[17] = second compound 0.316 µM, first compound 3.16 µM
[18] = second compound 0.316 µM, first compound 10 µM
[19] = second compound 1 µM, first compound 0.0316 µM
[20] = second compound 1 µM, first compound 0.1 µM
[21] = second compound 1 µM, first compound 0.316 µM
[22] = second compound 1 µM, first compound 1 µM
[23] = second compound 1 µM, first compound 3.16 µM
[24] = second compound 1 µM, first compound 10 µM
[25] = second compound 3.16 µM, first compound 0.0316 µM
[26] = second compound 3.16 µM, first compound 0.1 µM
[27] = second compound 3.16 µM, first compound 0.316 µM
[28] = second compound 3.16 µM, first compound 1 µM
[29] = second compound 3.16 µM, first compound 3.16 µM
[30] = second compound 3.16 µM, first compound 10 µM
[31] = second compound 10 µM, first compound 0.0316 µM
[32] = second compound 10 µM, first compound 0.1 µM
[33] = second compound 10 µM, first compound 0.316 µM
[34] = second compound 10 µM, first compound 1 µM
[35] = second compound 10 µM, first compound 3.16 µM
[36] = second compound 10 µM, first compound 10 µM
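Further: spheroids exposed to compounds for 7 days before readout.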
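Wherever viability, T/C is given: 100% = DMSO vehicle control wells.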

COc1ccc([C@@H](O)c2cc(-c3ncnc4cc(N5CCOCC5)ccc34)c(F)cc2Cl)nn1 + CN1CCN(c2cc(C(=O)Nc3cc4cc(-c5cnn(C)c5)ccc4cn3)ccn2)CC1
> 7.50: pIC50 (second compound 0.316 µM) | pIC50 (second compound 1 µM) | pIC50 (second compound 3.16 µM) | pIC50 (second compound 10 µM)
5.21: pIC50 (second compound 0.1 µM)
inactive: viability, T/C [1] 106% | viability, T/C [2] 104% | viability, T/C [3] 90.4% | viability, T/C [4] 87% | viability, T/C [5] 70.3% | viability, T/C [6] 50.1% | viability, T/C [7] 97.9% | viability, T/C [8] 85% | viability, T/C [9] 80.1% | viability, T/C [10] 73.6% | viability, T/C [11] 67.5% | viability, T/C [12] 38.8% | viability, T/C [13] 30.2% | viability, T/C [14] 22.3% | viability, T/C [15] 26.9% | viability, T/C [16] 20.3% | viability, T/C [17] 25% | viability, T/C [18] 11.8%
active: viability, T/C [19] 5.5% | viability, T/C [20] 4.93% | viability, T/C [21] 4.05% | viability, T/C [22] 4.46% | viability, T/C [23] 4.87% | viability, T/C [24] 5.56% | viability, T/C [25] 6.52% | viability, T/C [26] 6.92% | viability, T/C [27] 5.95% | viability, T/C [28] 6.56% | viability, T/C [29] 7.75% | viability, T/C [30] 6.44% | viability, T/C [31] 1.12% | viability, T/C [32] 1.29% | viability, T/C [33] 1.09% | viability, T/C [34] 1.69% | viability, T/C [35] 2.12% | viability, T/C [36] 1.23%
< 5.00: pIC50 (second compound 0.0316 µM)

CCCS(=O)(=O)Nc1ccc(F)c(C(=O)c2c[nH]c3ncc(-c4ccc(Cl)cc4)cc23)c1F + CNC(=O)c1ccc(Nc2nc(OC3CCCC3)c3c(-c4ccc5nc(C)oc5c4)c[nH]c3n2)c(OC)c1
inactive: viability, T/C [1] 89.8% | viability, T/C [2] 99.1% | viability, T/C [3] 86.6% | viability, T/C [4] 125% | viability, T/C [5] 104% | viability, T/C [7] 82.2% | viability, T/C [8] 92.3% | viability, T/C [9] 88.2% | viability, T/C [10] 76.7% | viability, T/C [11] 87.9% | viability, T/C [13] 74.5% | viability, T/C [14] 81.1% | viability, T/C [15] 59.9% | viability, T/C [16] 63.1% | viability, T/C [17] 61.3% | viability, T/C [18] 10.2% | viability, T/C [19] 75.2% | viability, T/C [20] 63.2% | viability, T/C [21] 66.7% | viability, T/C [22] 64.8% | viability, T/C [23] 42.6% | viability, T/C [24] 11.8% | viability, T/C [25] 54.9% | viability, T/C [26] 50.6% | viability, T/C [27] 50.2% | viability, T/C [28] 44.6% | viability, T/C [29] 26.5% | viability, T/C [30] 16.4% | viability, T/C [31] 49.2% | viability, T/C [32] 47% | viability, T/C [33] 53% | viability, T/C [34] 47% | viability, T/C [35] 30.1% | viability, T/C [36] 17.9%
5.23: pIC50 (second compound 0.0316 µM)
6.42: pIC50 (second compound 3.16 µM)
5.41: pIC50 (second compound 0.316 µM)
5.67: pIC50 (second compound 1 µM)
active: viability, T/C [6] 7.61% | viability, T/C [12] 6.61%
5.27: pIC50 (second compound 0.1 µM)
> 7.50: pIC50 (second compound 10 µM)

COC1C=CCC(C)C(C)S(=O)(=O)NC(=O)c2ccc3c(c2)N(CC2CCC21)CC1(CCCc2cc(Cl)ccc21)CO3 (stereo unspecified) + CNC(=O)c1ccc(Nc2nc(OC3CCCC3)c3c(-c4ccc5nc(C)oc5c4)c[nH]c3n2)c(OC)c1
5.21: pIC50 (second compound 0.1 µM)
6.39: pIC50 (second compound 0.316 µM)
6.86: pIC50 (second compound 1 µM)
inactive: viability, T/C [1] 95.8% | viability, T/C [2] 91.9% | viability, T/C [3] 72% | viability, T/C [4] 84.9% | viability, T/C [5] 67.5% | viability, T/C [6] 29.1% | viability, T/C [7] 94.7% | viability, T/C [8] 74.8% | viability, T/C [9] 65.4% | viability, T/C [10] 84.3% | viability, T/C [11] 91.4% | viability, T/C [12] 26.8% | viability, T/C [13] 84.9% | viability, T/C [14] 64.7% | viability, T/C [15] 50.6% | viability, T/C [16] 42.3% | viability, T/C [17] 39.1% | viability, T/C [18] 25.9% | viability, T/C [19] 64.9% | viability, T/C [20] 55.3% | viability, T/C [21] 38.5% | viability, T/C [22] 29.1% | viability, T/C [23] 25.6% | viability, T/C [24] 19.6% | viability, T/C [25] 49.6% | viability, T/C [26] 40.1% | viability, T/C [27] 30.7% | viability, T/C [28] 20.8% | viability, T/C [29] 18.1% | viability, T/C [30] 14.2% | viability, T/C [31] 42.9% | viability, T/C [32] 41.2% | viability, T/C [33] 30.8% | viability, T/C [34] 18.3% | viability, T/C [35] 13.5% | viability, T/C [36] 12.1%
5.28: pIC50 (second compound 0.0316 µM)
> 7.50: pIC50 (second compound 3.16 µM) | pIC50 (second compound 10 µM)
